The record followed here is ChEMBL document CHEMBL1201862, “PubChem BioAssay data set” (2004).

SMILES strings stand for the structures.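 In this assay, cells in 96-well plates receive the compound at five concentrations for 48 hours. Endpoints are linearly interpolated between the surrounding concentrations. GI50 = concentration required for 50% inhibition of growth.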 Active and inactive are the calls of the source. Cut-off read from the data, not from the text of the source: active = GI50 up to about 1.1 µM and inactive = higher.

Test systems include 786-0; A549; EKVX; HCT-15; HOP-62; HOP-92; Hs-578T; IGROV-1; KM12; MDA-MB-435; Malme-3M; NCI-H460; OVCAR-4; OVCAR-5; RXF 393; SK-MEL-2; SK-MEL-5; TK-10; U-251; HL-60.
What all share (experiment): inhibition of tumour cell growth, NCI panel, 48 h

`c1ccc(CNCCN2CCNCC2)nc1`: the GI50 is > 100 µM (inactive) in the test with 786-0; > 100 µM (inactive) in the test with A549; > 100 µM (inactive) in the test with EKVX; above 100 µM with HCT-15; > 100 µM (inactive) in the test with HOP-62; > 100 µM (inactive) in the test with HOP-92. Besides, the GI50 with Hs-578T, in the test with IGROV-1, with KM12, in the test with MDA-MB-435, in the test with Malme-3M and with NCI-H460 was > 100 µM (inactive) in each case. In addition, the GI50 in the test on OVCAR-4, in the test with OVCAR-5, in the test with RXF 393, in the test with SK-MEL-2, in the test with SK-MEL-5 and with TK-10 was > 100 µM (inactive) in each case. The GI50 in the test with U-251 is > 100 µM (inactive).
Consider `Nc1nnnn1CCO`, for which the GI50 is > 100 µM (inactive) in the test on 786-0; > 100 µM (inactive) in the test on A549; > 100 µM (inactive) in the test with EKVX; above 100 µM in the test with HCT-15; > 100 µM (inactive) in the test with HOP-62; > 100 µM (inactive) in the test with HOP-92. The GI50 in the test with Hs-578T, in the test on IGROV-1, with KM12, in the test on MDA-MB-435, in the test on Malme-3M and with NCI-H460 was > 100 µM (inactive) in each case. The GI50 in the test on OVCAR-4, in the test with OVCAR-5, in the test on RXF 393, in the test on SK-MEL-2, in the test with SK-MEL-5 and with TK-10 was > 100 µM (inactive) in each case. In addition, the GI50 with U-251 is > 100 µM (inactive).
For `O=C1NC(=O)C2(CCCCCC2)N1`, the GI50 was > 100 µM (inactive) with 786-0; > 100 µM (inactive) in the test on A549; > 100 µM (inactive) with EKVX; above 100 µM in the test on HCT-15; > 100 µM (inactive) with HOP-62; > 100 µM (inactive) with HOP-92. Besides, the GI50 in the test on Hs-578T, in the test with IGROV-1, with KM12, in the test with MDA-MB-435, with Malme-3M and in the test on NCI-H460 was > 100 µM (inactive) each time. The GI50 with OVCAR-4, with OVCAR-5, with RXF 393, with SK-MEL-2, with SK-MEL-5 and in the test with TK-10 was > 100 µM (inactive) throughout. Moreover, the GI50 with U-251 is > 100 µM (inactive).
For the molecule `COC(=O)c1ccc(NCc2c(O)ccc(O)c2Br)cc1Cl`, the GI50 is 18.4 µM (inactive) with 786-0; 54.7 µM (inactive) with A549; 14.6 µM (inactive) with EKVX; 16.6 µM in the test with HCT-15; 1.69 µM (inactive) with HL-60; 14.9 µM (inactive) in the test with HOP-92. Also, the GI50 was 25.1 µM (inactive) in the test with Hs-578T; 14.5 µM (inactive) in the test on IGROV-1; 15.3 µM (inactive) in the test on KM12; 13.6 µM (inactive) in the test on MDA-MB-435; 18.3 µM (inactive) in the test on Malme-3M; 18.7 µM (inactive) in the test on NCI-H460. In addition, the GI50 is 18.2 µM (inactive) with OVCAR-4; 14.6 µM (inactive) in the test on OVCAR-5; 19.1 µM (inactive) with SK-MEL-2; 18.5 µM (inactive) in the test on SK-MEL-5; 16.7 µM (inactive) in the test with U-251.
For the molecule `CCOC(=O)c1c(C)n(Cc2ccccc2)c2c1cc(O)c1[nH]c3c(c12)CCCC3`, the GI50 with 786-0 is 16.1 µM (inactive); in the test with A549 it was 6.52 µM (inactive); in the test with EKVX, 2.69 µM (inactive); in the test with HCT-15 it was 2.2 µM; with HL-60, 2.41 µM (inactive); in the test with HOP-62 it was 11.7 µM (inactive). Moreover, the GI50 with HOP-92 was < 0.01 µM (active); in the test on Hs-578T, 2.25 µM (inactive); with IGROV-1 it was 3.44 µM (inactive); in the test on KM12 it was 3.17 µM (inactive); in the test with MDA-MB-435, 11.9 µM (inactive); with Malme-3M, 3.79 µM (inactive). The GI50 is 2.82 µM (inactive) in the test on NCI-H460; 1.07 µM (active) in the test with OVCAR-4; 7.08 µM (inactive) in the test with OVCAR-5; 2.31 µM (inactive) with SK-MEL-2; 3.98 µM (inactive) in the test with SK-MEL-5; 10.6 µM (inactive) with TK-10. Moreover, in the test with U-251, the GI50 is 1.81 µM (inactive).
For the molecule `CC(C)CC(=O)OC[n+]1cccc(-c2c(COC(=O)NC(C)C)c(COC(=O)NC(C)C)c3n2CCC3)c1`, the GI50 was 27.5 µM (inactive) with 786-0; 79.1 µM (inactive) in the test with A549; > 100 µM (inactive) in the test on EKVX; 66.8 µM with HCT-15; 41.7 µM (inactive) in the test on HOP-62; 26.6 µM (inactive) with HOP-92. In addition, the GI50 in the test on Hs-578T is 74.1 µM (inactive); in the test on IGROV-1, > 100 µM (inactive); in the test on KM12 it was > 100 µM (inactive); in the test on MDA-MB-435, > 100 µM (inactive); with Malme-3M, 83.6 µM (inactive); in the test on NCI-H460, 30.1 µM (inactive). In addition, the GI50 with OVCAR-4 was 38.5 µM (inactive); in the test on OVCAR-5 it was 60.8 µM (inactive); with RXF 393 it was 33.9 µM (inactive); with SK-MEL-2, 34 µM (inactive); with SK-MEL-5 it was 58.5 µM (inactive); in the test with TK-10, 63.5 µM (inactive). For the same molecule, in the test on U-251, the GI50 was 41.5 µM (inactive).
With `COc1ccc(C(Nc2ccccn2)c2cc(C(C)(C)C)cc(C(C)(C)C)c2O)cc1` (stereo not given), the GI50 is 21.4 µM (inactive) in the test on 786-0; 30 µM (inactive) with A549; 36 µM (inactive) in the test with EKVX; 22.3 µM in the test on HCT-15; 16.9 µM (inactive) with HOP-62; 31.6 µM (inactive) with HOP-92. The GI50 in the test on Hs-578T was 6.07 µM (inactive); in the test on IGROV-1 it was 24 µM (inactive); in the test with KM12, 14.9 µM (inactive); with MDA-MB-435, 17.4 µM (inactive); with Malme-3M it was 10.4 µM (inactive); with NCI-H460, 16.7 µM (inactive). The GI50 with OVCAR-4 was 34.4 µM (inactive); in the test on OVCAR-5, 42 µM (inactive); with RXF 393 it was 7.74 µM (inactive); in the test with SK-MEL-2, 18.1 µM (inactive); with SK-MEL-5, 16.3 µM (inactive); with TK-10, 49.7 µM (inactive). Also, the GI50 with U-251 was 19.8 µM (inactive).
Turning to `CC(C)(C)OC(=O)N(O)[C@@H]1CC[C@H](n2cnc3c(N)ncnc32)C1`, the GI50 is > 100 µM (inactive) with 786-0; > 100 µM (inactive) with A549; > 100 µM (inactive) with EKVX; above 100 µM with HCT-15; > 100 µM (inactive) in the test with HOP-62; > 100 µM (inactive) in the test on HOP-92. For the same molecule, the GI50 with Hs-578T was > 100 µM (inactive); in the test on IGROV-1, 54.5 µM (inactive); with KM12, > 100 µM (inactive); in the test on MDA-MB-435, > 100 µM (inactive); in the test with Malme-3M it was > 100 µM (inactive); in the test with NCI-H460, > 100 µM (inactive). Besides, the GI50 with OVCAR-4, with OVCAR-5, in the test on RXF 393, in the test on SK-MEL-2, with SK-MEL-5 and in the test on TK-10 was > 100 µM (inactive) throughout. In addition, the GI50 in the test with U-251 was > 100 µM (inactive).
